Source: patent US20120065228A1, “COMPOSITIONS AND METHODS FOR TREATING, CONTROLLING, REDUCING, OR AMELIORATING OCULAR INFLAMMATORY WITH LOWER RISK OF INCREASED INTRAOCULAR PRESSURE” (priority 2007, published 2012)
Several values for one entry are separate records, joined by “and”; a condition that tells them apart may be missing. Equal values may be shown once. Read-outs that look alike come from different tables or passages of the source.

Key:
[1] = tested on: New Zealand White rabbits; assay type: in vivo; conditions: for Rabbits that died or were euthanized between Days 11 and 33: right eye four times daily, Days 1-31; for Mortality (animals found dead or euthanized prior to study completion/number of animals in group): 50 μL topical right eye 4 x daily, to Day 33; for Mortality rate: right eye four times daily up to 31 days, dexamethasone 0.05 mg/dose, BOL-303242-X per dose level (0.05, 0.25, 0.5 mg/dose)
Procedure: On Days 1-31, animals received daily topical doses of the appropriate test article into the right eye. Animals were dosed four times per day, with doses administered 2 hours apart. Doses were administered using a calibrated 50-μL pipette. The eyelids were held close for 10 seconds immediately following dosing. The time of each dose administration was recorded.
Animals determined to be moribund were euthanized with an intravenous injection of commercial euthanasia solution.

rabbit eye = test: Clinical evaluation by slit lamp (clinical score), rabbit paracentesis model; assay type: in vivo; parameters: key to Clinical Score −180 min / Clinical Score −5 min / Clinical Score +115 min: 0: normal; 1: discrete dilatation of iris and conjunctival vessels; 2: moderate dilatation of iris and conjunctival vessels; 3: intense iridal hyperemia with flare in the anterior chamber; 4: intense iridal hyperemia with flare in the anterior chamber and presence of fibrinous exudates; conditions: for Clinical Score −5 min: 5 min before the first paracentesis; for Clinical Score −5 min / Clinical Score +115 min / Clinical Score −180 min: individual eyes; for Clinical Score +115 min: 5 min before the second paracentesis; for Clinical score as percentage of eyes, Score (%) 2 / Clinical score as percentage of eyes, Score (%) 3 / Clinical score as percentage of eyes, Score (%) 0 / Clinical score as percentage of eyes, Score (%) 1: 8 eyes; for Clinical Score −180 min: basal
[2] = tested on: protein concentration in the aqueous humor; test: Protein measurement in aqueous humor, rabbit paracentesis model; assay type: in vivo; conditions: for Protein in aqueous humor, Mean / Protein in aqueous humor: second paracentesis; for Protein in aqueous humor: individual eyes
Procedure: Each rabbit was placed in a restraint device and tagged with the alphanumeric code. The formulations were instilled (50 μl) into the conjunctival sac of both eyes 180, 120, 90 and 30 min before the first paracentesis; then 15, 30, 90 min after the first paracentesis. To perform the first paracentesis the animals were anaesthetized by intravenous injection of 5 mg/kg Zoletil® (Virbac; 2.5 mg/kg tiletamine HCl and 2.5 mg/kg zolazepam HCl) and one drop of local anesthetic (Novesina®, Novartis) was administered to the eye. Anterior chamber paracentesis was performed with a 26 G needle attached to a tuberculin syringe; the needle was introduced into the anterior chamber through the cornea, taking care not to damage the tissues. Two hours after the ® first paracentesis, the animals were sacrificed with 0.4 ml Tanax® (Intervet International B.V.) and the second paracentesis was performed. About 100 μl of aqueous humor were removed at the second paracentesis. Aqueous humor was immediately split in four aliquots and stored at −80° C. until analysis. Then both eyes were enucleated and the iris-ciliary body was carefully excised, placed in polypropylene tubes, and stored at −80° C. until analysis.
For protein concentration determination in the aqueous humor we used the Protein Quantification Kit (Fluka; Cat. No. 77371; Lot. No. 1303129). Five microliters of aqueous humor were diluted to 100 μl with water. Twenty microliters of samples and of standards were load into a 96-well plate and recorded in a plate layout. Samples were treated following the assay procedure described in the kit. A microplate reader (GDV, Italy; model DV 990 B/V6) set at 670 nm was used for making the calibration and analyzing the samples.
Pupillary diameter, PGE2, protein, PMN, and MPO were expressed as mean±SEM. Statistical analysis was performed using one way ANOVA followed by a Newman-Keuls post hoc test. Clinical score was expressed as % of eyes and the statistical analysis was performed using Kruskal-Wallis followed by a Dunn post hoc test. P<0.05 was considered statistically significant in both cases. Prism 4 software (GraphPad Software, Inc.) was used for the analysis and graphs.

myocilin mRNA = test: Myocilin mRNA expression in monkey TM cells (qRT-PCR); assay type: cell-based, rhesus monkeys (Macaca mulatta); conditions: for EC50: Macaca mulatta, cultured monkey TM cells, weighted average, two dose-response studies each using two TM cell strains, read-out: EC50 ± SE, expression of myocilin mRNA
Procedure: For each study, up to nine TM cell strains, each derived from an individual monkey, were tested separately. Cells were thawed and seeded into 12- or 48-well clusters (Falcon, BD Biosciences; 150,000 and 30,000 cells/well, respectively) in proliferation medium. When cells were 75% to 90% confluent proliferation medium was replaced by a 5:4 mixture of HESFM and Dulbecco's MEM, respectively, supplemented with 10% FBS, with added taurine, ascorbic acid phosphate, glutathione, and antibiotic as for proliferation medium (above), and with 2.72 g/L glucose and 1.72 g/L fructose. At confluence, the medium was changed to Dulbecco's MEM, containing 10% FBS^40, ascorbic acid phosphate, antibiotic, 2.72 g/L glucose and 1.72 g/L fructose. Cells were maintained as stable, confluent monolayers in this latter medium for 4 to 7 days before experimental treatments commenced.
After quantification of purified total RNA (Quant-iT RNA Assay kit, Molecular Probes, Eugene, Oreg.), equivalent amounts of this RNA were apportioned to generate first-strand cDNAs for each treatment sample, using random primers, (Affinity Script, Stratagene, La Jolla, Calif.). Oligonucleotide myocilin primers, designed based on the cynomolgus MYOC gene, and fluorescent Taqman probe (Applied Biosystems, Foster City, Calif.) were used for PCR amplification. Equal amounts of total RNA-equivalent mass (approximate range […]) reactant cDNA were added to the PCR Master Mix (Stratagene) and myocilin primers/Taqman probe. Amplification was performed in a thermocycler (Mx3005P, Stratagene), with an initial denaturation step at 95° C. for 10 min, followed by 40 cycles of 95° C. for 15 sec and 60° C. for 1 min for extension. Every run included standard controls (i.e., either without reverse transcriptase or lacking template). Relative quantities of myocilin mRNA abundance were determined using differences in threshold cycles (“Ct”) between vehicle control and drug treatments. Each sample was analyzed in triplicate wells, and the corresponding values averaged for further quantitative analysis. Myocilin mRNA abundance, expressed in proportion to vehicle control-treated samples, was calculated using the Mx3005P software.
Data underwent Box-Cox transformations for one- or two-way analysis of variance (ANOVA), followed by the Tukey-Kramer test, using JMP software (SAS, Cary, N.C.). The specific transformations used for analyses are mentioned in the figure legends. For each set of triplicate samples from the individual monkey TM cell strains tested, Western blot densitometry values for myocilin protein detected in CM (as geometric means), and relative abundance of myocilin mRNA (as geometric means), were plotted as a function of drug concentrations. P-values less than 0.05 were considered statistically significant. […]

[3] = 0.05 mg/dose (0.1% dexamethasone suspension; 1 mg/g BOL-303242-X suspension)
[4] = 0.1% topical formulation, listed as BOL
[5] = 0.1% topical formulation, +115 min
[6] = 0.1% topical formulation, −5 min
[7] = 0.1% topical formulation, −180 min (basal)
[8] = 0.5% topical formulation, listed as BOL
[9] = 0.5% topical formulation, +115 min
[10] = 0.1% topical formulation, listed as Dex

`Cc1ccc2c(NCC(O)(CC(C)(C)c3cc(F)cc4c3OCC4)C(F)(F)F)cccc2n1` (stereo not shown) [BOL-303242-X] was tested, and the “Rabbits that died or were euthanized between Days 11 and 33” value [1, 3] was “one of ten”, the “Mortality (animals found dead or euthanized prior to study completion/number of animals in group)” value ([1]; 1 mg/g, 0.05 mg/dose) was 1/10^(6) and the “Day of Death (day euthanized or found dead)” value ([1]; 5 mg/g BOL-303242-X ([…]) topical 4 x daily, individual rabbits, Group C) was 33. For the same compound, the “Rabbits that died or were euthanized between Days 11 and 33” value ([1]; 5 mg/g suspension ([…])) was “two of ten”, the “Mortality (animals found dead or euthanized prior to study completion/number of animals in group)” value ([1]; 5 mg/g, […]) was 2/10^(5) and the “Day of Death (day euthanized or found dead)” value ([1]; 10 mg/g BOL-303242-X (0.5 mg/dose) topical 4 x daily, individual rabbit, Group B) was 11. For the same compound, the “Rabbits that died or were euthanized between Days 11 and 33” value ([1]; 10 mg/g suspension (0.5 mg/dose)) was “one of ten”, the “Morbidity observation in surviving rabbits” value ([1]; 10 mg/g suspension (0.5 mg/dose), one surviving rabbit (Group B, No. 3048)) was “diarrhea on Day 18” and the “Mortality (animals found dead or euthanized prior to study completion/number of animals in group)” value ([1]; 10 mg/g, 0.5 mg/dose) was 1/10^(4). For the same compound, the Mortality rate [1] was 1-2 deaths per 10 rabbits, the “Clinical Score −5 min” value (rabbit eye; 0.1% topical formulation) was 0 and the “Clinical Score +115 min” value (rabbit eye; [4]) was 2 (6×) and 3 (2×). The “Clinical score as percentage of eyes, Score (%) 2” value (rabbit eye; [5]) was 75%, the “Clinical score as percentage of eyes, Score (%) 3” value (rabbit eye; [5]) was 25% and the “Clinical Score −180 min” value (rabbit eye; 0.1% topical formulation) was 0. The “Clinical score as percentage of eyes, Score (%) 0” value (rabbit eye; [6]) was 100%, the “Clinical score as percentage of eyes, Score (%) 0” value (rabbit eye; [7]) was 100% and the “Clinical Score −5 min” value (rabbit eye; 0.5% topical formulation) was 0. The “Clinical Score +115 min” value (rabbit eye; [8]) was 2 (5×) and 1 (3×), the “Clinical score as percentage of eyes, Score (%) 1” value (rabbit eye; [9]) was 37.5% and the “Clinical score as percentage of eyes, Score (%) 2” value (rabbit eye; [9]) was 62.5%. The “Clinical Score −180 min” value (rabbit eye; 0.5% topical formulation) was 0, the “Clinical score as percentage of eyes, Score (%) 0” value (rabbit eye; 0.5% topical formulation, −5 min) was 100% and the “Clinical score as percentage of eyes, Score (%) 0” value (rabbit eye; 0.5% topical formulation, −180 min (basal)) was 100%. For the same compound, the “Clinical Score −5 min” value (rabbit eye; 1% topical formulation) was 0, the “Clinical Score +115 min” value (rabbit eye; 1% topical formulation) was 2 and the “Clinical score as percentage of eyes, Score (%) 2” value (rabbit eye; 1% topical formulation, +115 min) was 100%. For the same compound, the “Clinical Score −180 min” value (rabbit eye; 1% topical formulation) was 0, the “Clinical score as percentage of eyes, Score (%) 0” value (rabbit eye; 1% topical formulation, −5 min) was 100% and the “Clinical score as percentage of eyes, Score (%) 0” value (rabbit eye; 1% topical formulation, −180 min (basal)) was 100%. The “Protein in aqueous humor, Mean” value ([2]; 0.1% topical formulation) was 33.667 mg/mL, the “Protein in aqueous humor” value [2, 4] was 34.87 mg/mL and 34.41 mg/mL and 31.14 mg/mL and 22.82 mg/mL and 29.46 mg/mL and 31.69 mg/mL and 35.70 mg/mL and 49.25 mg/mL and the “Protein in aqueous humor, statistical significance vs CTR” value ([2]; 0.5% topical formulation, p<0.05) was “statistical significance”. For the same compound, the “Protein in aqueous humor, Mean” value ([2]; 0.5% topical formulation) was 28.844 mg/mL, the “Protein in aqueous humor” value [2, 8] was 33.98 mg/mL and 33.65 mg/mL and 19.99 mg/mL and 27.11 mg/mL and 19.72 mg/mL and 36.35 mg/mL and 27.71 mg/mL and 32.24 mg/mL and the “Protein in aqueous humor, statistical significance vs CTR” value ([2]; 1% topical formulation, p<0.001) was “statistical significance”. The “Protein in aqueous humor, Mean” value ([2]; 1% topical formulation) was 21.435 mg/mL, the “Protein in aqueous humor” value ([2]; 1% topical formulation, listed as BOL) was 20.99 mg/mL and 21.48 mg/mL and 15.11 mg/mL and 20.28 mg/mL and 20.94 mg/mL and 21.89 mg/mL and 20.03 mg/mL and 30.76 mg/mL and the “Maximal efficacy for myocilin mRNA expression, relative to DEX” value (myocilin mRNA; 300 nM, monkey TM cells) was “approximately 67%”. The EC50 (myocilin mRNA) was 20.8 ± 2.74 nM and the “Myocilin mRNA abundance compared with DEX” value (myocilin mRNA; all doses, monkey TM cells) was “significantly lower mRNA abundance values”.
With `C[C@@H]1C[C@H]2[C@@H]3CCC4=CC(=O)C=C[C@]4(C)[C@@]3(F)[C@@H](O)C[C@]2(C)[C@@]1(O)C(=O)CO` [dexamethasone, reference compound] the “Rabbits that died or were euthanized between Days 11 and 33” value [1, 3] was “Six of ten”, the “Mortality (animals found dead or euthanized prior to study completion/number of animals in group)” value ([1]; 0.1% Dexamethasone (Maxidex), 0.05 mg/dose) was 6/10^(3) and the Mortality rate [1] was 6 deaths per 10 rabbits. The “Clinical Score −5 min” value (rabbit eye; [10]) was 0 (6×) and 1 (2×), the “Clinical Score +115 min” value (rabbit eye; [10]) was 1 (6×) and 3 (2×) and the “Clinical score as percentage of eyes, Score (%) 1” value (rabbit eye; [5]) was 75%. The “Clinical score as percentage of eyes, Score (%) 3” value (rabbit eye; [5]) was 25%, the “Clinical Score −180 min” value (rabbit eye; 0.1% topical formulation) was 0 and the “Clinical score as percentage of eyes, Score (%) 0” value (rabbit eye; [6]) was 75%. For the same compound, the “Clinical score as percentage of eyes, Score (%) 1” value (rabbit eye; [6]) was 25%, the “Clinical score as percentage of eyes, Score (%) 0” value (rabbit eye; [7]) was 100% and the “Protein in aqueous humor, Mean” value ([2]; 0.1% topical formulation) was 33.457 mg/mL. For the same compound, the “Protein in aqueous humor” value [2, 10] was 31.31 mg/mL and 31.81 mg/mL and 35.95 mg/mL and 37.15 mg/mL and 32.12 mg/mL and 32.40 mg/mL and the EC50 (myocilin mRNA) was 14.7 ± 1.27 nM.
